Values quoted from earlier work, collected in US6653293B1, “Methods, apparatuses and medicaments for treating body fluid related diseases” (priority 1992, dated 2003).

Test system: infected T-4 lymphocytes
Conditions: in vitro, HIV-infected T-4 lymphocytes

In the case of tumor necrosis factor [TNF], the “death of infected cells” value is given as “subjects the infected cells to death” and the “time to coagulation of DNA of the infected T-4 lymphocytes after administration” value is given as “about 3 hours”.
